Results reported in US6380215B1, “Beta-alanine derivative and a process for the preparation thereof” (Fujisawa Pharmaceutical Co., Ltd, priority 1993, dated 2002).

Key:
[1] = tested on: platelets in platelet rich plasma (PRP), aggregation induced by ADP; test: Effect on Platelet Aggregation Induced by Adenosine Diphosphate (ADP); format: cell-based; details: dose required for complete inhibition of platelet aggregation; human PRP 3×10^8 platelets/ml, ADP final 2.5 μM, 37° C., aggregometer
Procedure: Test 1: Effect on Platelet Aggregation Induced by Adenosine Diphosphate (ADP)
Platelet rich plasma (PRP) which contains 3×10^8 platelets/ml was prepared from human blood. To the 225 μl of PRP, 25 μl of drug solution* was added, and then stirred for 2 minutes at 37° C. To the solution 5 μl of ADP (final 2.5 μM) was added as an aggregation inducer. Aggregation was measured by using an aggregometer (NBS HEMA-TRACER 801). Activity of inhibitor (test compound) was expressed as IC100 value i.e. dose required for complete inhibition of platelet aggregation.
Drug solution* — — — Test compound was dissolved in water.

Row | SMILES | melting point [°C] | IC100 [1] [nM]
1 | Cl.O=C(O)CCNC(=O)CC1CCCN(C(=O)CC2CCNCC2)C1 (centres unmarked) | 73 | 
2 | Cl.O=C(O)CCNC(=O)CC1CCCN(C(=O)C=C2CCNCC2)C1 (centres unmarked) | 63 | 
3 | COC(=O)CCNC(=O)C1CCN(C(=O)CCC2CCN(C(=O)OC(C)(C)C)CC2)CC1 | 79 | 
4 | COC(=O)CCNC(=O)CC1CCCN(C(=O)C=C2CCN(C(=O)OC(C)(C)C)CC2)C1 (centres unmarked) | 121 | 
5 | COC(=O)C[C@H](N)C(=O)NC1CCCN(C(=O)CCC2CCN(C(=O)OCc3ccccc3)CC2)C1.Cl (some centres unmarked) | 75 | 
6 | Cl.O=C(O)CCNC(=O)[C@@H]1CCCN(C(=O)CCC2CCNCC2)C1 [Example 21 (3), N-[(R)-1-{3-(4-piperidyl)propionyl}-3-piperidylcarbonyl]-β-alanine hydrochloride] | 84 | 1000

Further lines, with some results ahead:

Row | melting point [°C] | SMILES | IC100 [1] [nM]
7 | 105 to 108 | C[C@H](CC(=O)O)NC(=O)[C@@H]1CCCN(C(=O)CCC2CCNCC2)C1.Cl | 
8 | 82 | COc1ccc(CCNC(=O)[C@H](CC(=O)O)NC(=O)[C@@H]2CCCN(C(=O)CCC3CCNCC3)C2)cc1.Cl | 
9 | 67 | Cl.O=C(O)CC(NC(=O)[C@@H]1CCCN(C(=O)CCC2CCNCC2)C1)c1ccccc1 (some centres unmarked) | 
10 | 156 to 157 | CCCCCC(=O)N[C@@H](CNC(=O)[C@@H]1CCCN(C(=O)CCC2CCNCC2)C1)C(=O)O.Cl | 
11 | 70 to 72 | Cl.O=C(O)CCNC(=O)C1CCCN(C(=O)CCC2CCNCC2)C1 (centres unmarked) | 
12 | 63 to 65 | Cl.O=C(O)CCNC(=O)C1CCN(C(=O)CCC2CCNCC2)CC1 | 
13 | 70 | C#C[C@H](CC(=O)OCc1oc(=O)oc1C)NC(=O)[C@@H]1CCCN(C(=O)CCC2CCNCC2)C1.Cl | 
